Measured values reported in patent publication US11413243B2, “Fusogenic compounds for delivery of biologically active molecules” (Nitto Denko Corporation, priority 2017, dated 2022).
Where two headings read alike, the source gives them in different places.

Test system: HSP47
Details: for % of Expression at Dose (nM) 18 nM / % of HSP47 expression in Stellate Cell, Conc siRNA 18 nM: siRNA 18 nM; for % of Expression at Dose (nM) 75 nM / % of HSP47 expression in Stellate Cell, Conc siRNA 75 nM: siRNA 75 nM; for % of Expression at Dose (nM) 300 nM / % of HSP47 expression in Stellate Cell, Conc siRNA 300 nM: siRNA 300 nM; for % of HSP47 expression in Stellate Cell, Conc siRNA 18 nM / % of HSP47 expression in Stellate Cell, Conc siRNA 75 nM / % of HSP47 expression in Stellate Cell, Conc siRNA 300 nM: Table 5, stellate cells; for HSP47 gene expression knockdown compared to control formulation without fusogenic compound: HEDC and S104 liposomes, all concentrations of siRNA
Experimental: The in vitro activity for gene expression knockdown using an siRNA was measured using rat stellate cells in DMEM medium according to the following protocol: One day before the transfection, plate the cells in a 96-well plate at 3×10^3 cells per well for Stellate cells with 100 μl of medium containing 10% FBS and culture in a 37° C. incubator containing a humidified atmosphere of 5% CO2 in air. Before transfection, change medium to 90 μl of medium without antibiotics. Prepare the appropriate dilutions of the solution collected from the tubing in PBS buffer so that the addition of 10 μl into each well is sufficient to reach the desired concentration. 48 hours after transfection, wash the cells once with ice-cold PBS. Lyse the cells with 50 μl of Cell-to-Ct Lysis Buffer for 5-30 minutes at ambient temperature. Add 5 μl of Stop Solution and incubate for 2 minutes at ambient temperature. Measure mRNA level by qPCR with TAQMAN immediately. Alternatively, the samples can be frozen at −80° C. and assayed at later times. For qRT-PCR assay: Thaw all reagents on ice. Mix the pooled reagents in 0.2 ml PCR tubes. Dispense the set-up mixture into 384 well plate, 10 μl/well×3. Seal the plate with film, spin down mixture into the bottom of wells. Perform qRT-PCR assay.
In this example, an HSP47 siRNA was used to knockdown HSP47 gene. For TaqMan gene expression assays, HSP47 gene specific TaqMan probe was used.

| Structure (SMILES) | % of Expression at Dose (nM) 18 nM (Table 4, rat stellate cells) [%] | % of Expression at Dose (nM) 75 nM (Table 4, rat stellate cells) [%] | % of Expression at Dose (nM) 300 nM (Table 4, rat stellate cells) [%] | % of Expression at Dose (nM) 18 nM (Table 3, rat stellate cells) [%] | % of Expression at Dose (nM) 75 nM (Table 3, rat stellate cells) [%] | % of Expression at Dose (nM) 300 nM (Table 3, rat stellate cells) [%] | further results |
| --- | --- | --- | --- | --- | --- | --- | --- |
| CCCCC/C=C\C/C=C\CCCCCCCC(=O)OCCN(CCOC(=O)CCCCCCC/C=C\C/C=C\CCCCC)C(=O)CCC(=O)NC[C@H](NC(=O)CCC(=O)N(CCOC(=O)CCCCCCC/C=C\C/C=C\CCCCC)CCOC(=O)CCCCCCC/C=C\C/C=C\CCCCC)C(=O)NCCCOCCOCCOCCOCCOCCCNC(=O)[C@H](CNC(=O)CCC(=O)N(CCOC(=O)CCCCCCC/C=C\C/C=C\CCCCC)CCOC(=O)CCCCCCC/C=C\C/C=C\CCCCC)NC(=O)CCC(=O)N(CCOC(=O)CCCCCCC/C=C\C/C=C\CCCCC)CCOC(=O)CCCCCCC/C=C\C/C=C\CCCCC [Compound T7] | 51 | 20 | 8 | – | – | – | – |
| CCCCCCCCCCCCCC(=O)OCCN(CCOC(=O)CCCCCCCCCCCCC)C(=O)CCC(=O)NCCCC[C@H](NC(=O)CCC(=O)N(CCOC(=O)CCCCCCCCCCCCC)CCOC(=O)CCCCCCCCCCCCC)C(=O)NCCCOCCOCCOCCOCCOCCCNC(=O)[C@H](CCCCNC(=O)CCC(=O)N(CCOC(=O)CCCCCCCCCCCCC)CCOC(=O)CCCCCCCCCCCCC)NC(=O)CCC(=O)N(CCOC(=O)CCCCCCCCCCCCC)CCOC(=O)CCCCCCCCCCCCC [Compound T2] | – | – | – | 82 | 70 | 44 | – |
| CCCCC/C=C\C/C=C\CCCCCCCC(=O)OCCN(CCOC(=O)CCCCCCC/C=C\C/C=C\CCCCC)C(=O)CCC(=O)NCCCCC(NC(=O)CCC(=O)N(CCOC(=O)CCCCCCC/C=C\C/C=C\CCCCC)CCOC(=O)CCCCCCC/C=C\C/C=C\CCCCC)C(=O)NCCCOCCOCCOCCCNC(=O)C(CCCCNC(=O)CCC(=O)N(CCOC(=O)CCCCCCC/C=C\C/C=C\CCCCC)CCOC(=O)CCCCCCC/C=C\C/C=C\CCCCC)NC(=O)CCC(=O)N(CCOC(=O)CCCCCCC/C=C\C/C=C\CCCCC)CCOC(=O)CCCCCCC/C=C\C/C=C\CCCCC (stereo not drawn) [Compound T4] | 27 | 10 | 8 | 82 | 70 | 44 | – |
| CCCCCCCCCCCCCC(=O)OCCN(CCOC(=O)CCCCCCCCCCCCC)C(=O)CCC(=O)NCCCC[C@H](NC(=O)CCC(=O)N(CCOC(=O)CCCCCCCCCCCCC)CCOC(=O)CCCCCCCCCCCCC)C(=O)NCCCOCCOCCOCCCNC(=O)CCOCCOCCOCCOCCOCCC(=O)NCCCOCCOCCOCCCNC(=O)[C@H](CCCCNC(=O)CCC(=O)N(CCOC(=O)CCCCCCCCCCCCC)CCOC(=O)CCCCCCCCCCCCC)NC(=O)CCC(=O)N(CCOC(=O)CCCCCCCCCCCCC)CCOC(=O)CCCCCCCCCCCCC [Compound T1] | – | – | – | 76 | 68 | 44 | – |
| CCCCC/C=C\C/C=C\CCCCCCCC(=O)OCCN(CCOC(=O)CCCCCCC/C=C\C/C=C\CCCCC)C(=O)CCC(=O)NCCC[C@H](NC(=O)CCC(=O)N(CCOC(=O)CCCCCCC/C=C\C/C=C\CCCCC)CCOC(=O)CCCCCCC/C=C\C/C=C\CCCCC)C(=O)NCCCOCCOCCOCCOCCOCCCNC(=O)[C@H](CCCNC(=O)CCC(=O)N(CCOC(=O)CCCCCCC/C=C\C/C=C\CCCCC)CCOC(=O)CCCCCCC/C=C\C/C=C\CCCCC)NC(=O)CCC(=O)N(CCOC(=O)CCCCCCC/C=C\C/C=C\CCCCC)CCOC(=O)CCCCCCC/C=C\C/C=C\CCCCC [Compound T6] | 30 | 12 | 5 | – | – | – | – |
| CCCCCCCCCCCCCCCC(=O)OCCN(CCOC(=O)CCCCCCCCCCCCCCC)C(=O)CCCC(=O)NCCCC[C@H](NC(=O)CCCC(=O)N(CCOC(=O)CCCCCCCCCCCCCCC)CCOC(=O)CCCCCCCCCCCCCCC)C(=O)NCCCOCCOCCOCCCNC(=O)CCOCCOCCOCCOCCOCCC(=O)NCCCOCCOCCOCCCNC(=O)[C@H](CCCCNC(=O)CCCC(=O)N(CCOC(=O)CCCCCCCCCCCCCCC)CCOC(=O)CCCCCCCCCCCCCCC)NC(=O)CCCC(=O)N(CCOC(=O)CCCCCCCCCCCCCCC)CCOC(=O)CCCCCCCCCCCCCCC [Compound S6] | – | – | – | 97 | 80 | 33 | – |
| CC/C=C\C/C=C\C/C=C\CCCCCCCC(=O)OCCN(CCOC(=O)CCCCCCC/C=C\C/C=C\C/C=C\CC)C(=O)CCC(=O)NCCCC[C@H](NC(=O)CCC(=O)N(CCOC(=O)CCCCCCC/C=C\C/C=C\C/C=C\CC)CCOC(=O)CCCCCCC/C=C\C/C=C\C/C=C\CC)C(=O)NCCCOCCOCCOCCOCCOCCCNC(=O)[C@H](CCCCNC(=O)CCC(=O)N(CCOC(=O)CCCCCCC/C=C\C/C=C\C/C=C\CC)CCOC(=O)CCCCCCC/C=C\C/C=C\C/C=C\CC)NC(=O)CCC(=O)N(CCOC(=O)CCCCCCC/C=C\C/C=C\C/C=C\CC)CCOC(=O)CCCCCCC/C=C\C/C=C\C/C=C\CC [Compound T8] | 29 | 9 | 8 | – | – | – | – |
| CCCCC/C=C\C/C=C\CCCCCCCCOC(=O)[C@H]1C[C@H](NCC(=O)CCC(=O)NCCCCC(NC(=O)CCC(=O)N[C@H]2C[C@H](C(=O)OCCCCCCCC/C=C\C/C=C\CCCCC)N(C(=O)CCCCCCC/C=C\C/C=C\CCCCC)C2)C(=O)NCCCOCCOCCOCCOCCOCCCNC(=O)C(CCCCNC(=O)CCC(=O)N[C@@H]2C[C@@H](C(=O)OCCCCCCCC/C=C\C/C=C\CCCCC)N(C(=O)CCCCCCC/C=C\C/C=C\CCCCC)C2)NC(=O)CCC(=O)N[C@@H]2C[C@@H](C(=O)OCCCCCCCC/C=C\C/C=C\CCCCC)N(C(=O)CCCCCCC/C=C\C/C=C\CCCCC)C2)CN1C(=O)CCCCCCC/C=C\C/C=C\CCCCC (stereo partly drawn) [Compound T10] | – | – | – | – | – | – | % of HSP47 expression in Stellate Cell, Conc siRNA 18 nM: 11.1%; % of HSP47 expression in Stellate Cell, Conc siRNA 75 nM: 4.2%; % of HSP47 expression in Stellate Cell, Conc siRNA 300 nM: 1.9% |
| CCCCCCCC/C=C\CCCCCCCC(=O)OCCN(CCOC(=O)CCCCCCC/C=C\CCCCCCCC)C(=O)CCC(=O)NCCCC[C@H](NC(=O)CCC(=O)N(CCOC(=O)CCCCCCC/C=C\CCCCCCCC)CCOC(=O)CCCCCCC/C=C\CCCCCCCC)C(=O)NCCCOCCOCCOCCCNC(=O)CCOCCOCCOCCOCCOCCC(=O)NCCCOCCOCCOCCCNC(=O)[C@H](CCCCNC(=O)CCC(=O)N(CCOC(=O)CCCCCCC/C=C\CCCCCCCC)CCOC(=O)CCCCCCC/C=C\CCCCCCCC)NC(=O)CCC(=O)N(CCOC(=O)CCCCCCC/C=C\CCCCCCCC)CCOC(=O)CCCCCCC/C=C\CCCCCCCC [Compound S8] | – | – | – | 74 | 64 | 42 | – |
| CCCCC/C=C\C/C=C\CCCCCCCC(=O)OCCN(CCOC(=O)CCCCCCC/C=C\C/C=C\CCCCC)C(=O)CCC(=O)NCCCC[C@H](NC(C)=O)C(=O)NCCCOCCOCCOCCOCCOCCCNC(=O)[C@H](CCCCNC(=O)CCC(=O)N(CCOC(=O)CCCCCCC/C=C\C/C=C\CCCCC)CCOC(=O)CCCCCCC/C=C\C/C=C\CCCCC)NC(C)=O [Compound T13] | – | – | – | – | – | – | % of HSP47 expression in Stellate Cell, Conc siRNA 18 nM: 21.8%; % of HSP47 expression in Stellate Cell, Conc siRNA 75 nM: 6.4%; % of HSP47 expression in Stellate Cell, Conc siRNA 300 nM: 3.1% |
| CCCCC/C=C\C/C=C\CCCCCCCC(=O)OCCN(CCOC(=O)CCCCCCC/C=C\C/C=C\CCCCC)C(=O)CCC(=O)NCCCC[C@H](NC(=O)CCC(=O)N(CCOC(=O)CCCCCCC/C=C\C/C=C\CCCCC)CCOC(=O)CCCCCCC/C=C\C/C=C\CCCCC)C(=O)NCCCOCCOCCOCCCNC(=O)CCOCCOCCOCCOCCOCCC(=O)NCCCOCCOCCOCCCNC(=O)[C@H](CCCCNC(=O)CCC(=O)N(CCOC(=O)CCCCCCC/C=C\C/C=C\CCCCC)CCOC(=O)CCCCCCC/C=C\C/C=C\CCCCC)NC(=O)CCC(=O)N(CCOC(=O)CCCCCCC/C=C\C/C=C\CCCCC)CCOC(=O)CCCCCCC/C=C\C/C=C\CCCCC [Compound R4] | – | – | – | 16 | 10 | 6 | activity for gene expression knockdown in stellate cells compared to control formulation (FIG. 24, Table 6 formulation HEDC:S104:DOPE:CH:DMPE-PEG with 2% (of total lipids) fusogenic compound): surprisingly increased; HSP47 gene expression knockdown compared to control formulation without fusogenic compound (FIG. 46, fusogenic compound 2% of the total lipids): greatly and surprisingly increased; HSP47 gene expression knockdown compared to control formulation without fusogenic compound (FIG. 46, fusogenic compound 10% of the total lipids): greatly and surprisingly increased; HSP47 gene expression knockdown compared to control formulation without fusogenic compound (FIG. 47, fusogenic compound 2% of the total lipids): greatly and surprisingly increased; % of Expression at Dose (nM) 50 nM (Table 3, siRNA 50 nM, rat stellate cells, 48 hours after transfection): 44%; % of Expression at Dose (nM) 200 nM (Table 3, siRNA 200 nM, rat stellate cells, 48 hours after transfection): 15% |
| CCCCC/C=C\C/C=C\CCCCCCCC(=O)OCCN(CCOC(=O)CCCCCCC/C=C\C/C=C\CCCCC)C(=O)CCCC(=O)NCCCC[C@H](NC(=O)CCCC(=O)N(CCOC(=O)CCCCCCC/C=C\C/C=C\CCCCC)CCOC(=O)CCCCCCC/C=C\C/C=C\CCCCC)C(=O)NCCCOCCOCCOCCOCCOCCCNC(=O)[C@H](CCCCNC(=O)CCCC(=O)N(CCOC(=O)CCCCCCC/C=C\C/C=C\CCCCC)CCOC(=O)CCCCCCC/C=C\C/C=C\CCCCC)NC(=O)CCCC(=O)N(CCOC(=O)CCCCCCC/C=C\C/C=C\CCCCC)CCOC(=O)CCCCCCC/C=C\C/C=C\CCCCC [Compound T5] | 29 | 13 | 11 | – | – | – | – |
| CCC/C=C\C/C=C\CCCCCCCC(=O)OCCN(CCOC(=O)CCCCCCC/C=C\C/C=C\CCCCC)C(=O)CC[C@H](NC(=O)CCC(=O)NCCCOCCOCCOCCOCCOCCCNC(=O)CCC(=O)NC(CCC(=O)N(CCOC(=O)CCCCCCC/C=C\C/C=C\CCCCC)CCOC(=O)CCCCCCC/C=C\C/C=C\CCCCC)C(=O)N(CCOC(=O)CCCCCCC/C=C\C/C=C\CCC)CCOC(=O)CCCCCCC/C=C\C/C=C\CCCCC)C(=O)N(CCOC(=O)CCCCCCC/C=C\C/C=C\CCCCC)CCOC(=O)CCCCCCC/C=C\C/C=C\CCCCC (stereo partly drawn) [Compound T9] | 100 | 65 | 36 | – | – | – | – |
